# Source: ChEMBL document CHEMBL5360658, “Discovery of MK-8768, a Potent and Selective mGluR2 Negative Allosteric Modulator” (ACS Med Chem Lett, 2023)
# How the values were obtained:
# [1] = Volume of distribution in monkey at 0.5 mg/kg, iv; type: ADME, organism-based, Macaca mulatta; conditions: rhesus monkey, in vivo
# [2] = Fraction unbound in dog plasma; type: ADME, cell-free, Canis lupus familiaris
# [3] = Mutagenicity in Salmonella typhimurium in presence of S9 fraction by Ames test; type: toxicity, subcellular; conditions: salmonella enterica subsp. enterica serovar typhimurium
# [4] = Oral bioavailability in rat at 2 mg/kg; type: ADME, organism-based; conditions: in vivo
# [5] = molecular target: Cytochrome P450 2C19 (Homo sapiens, UniProt P33261); assay: […] of CYP2C19 (unknown origin); type: ADME
# Chain of Cytochrome P450 2C19 (P33261 whole entry): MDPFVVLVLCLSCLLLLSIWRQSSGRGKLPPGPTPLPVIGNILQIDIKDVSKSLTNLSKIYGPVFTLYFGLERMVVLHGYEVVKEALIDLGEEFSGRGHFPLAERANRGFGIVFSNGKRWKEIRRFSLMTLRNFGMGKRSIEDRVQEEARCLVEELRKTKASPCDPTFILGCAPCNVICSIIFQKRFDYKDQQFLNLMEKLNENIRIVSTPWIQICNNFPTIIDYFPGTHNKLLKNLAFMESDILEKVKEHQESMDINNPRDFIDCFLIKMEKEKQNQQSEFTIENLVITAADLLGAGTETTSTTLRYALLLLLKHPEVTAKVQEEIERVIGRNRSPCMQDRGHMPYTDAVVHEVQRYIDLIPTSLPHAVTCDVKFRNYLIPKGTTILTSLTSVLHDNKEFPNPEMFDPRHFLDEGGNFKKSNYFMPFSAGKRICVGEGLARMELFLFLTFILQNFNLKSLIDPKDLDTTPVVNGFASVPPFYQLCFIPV
# [6] = Volume of distribution in rat at 1 mg/kg, iv; type: ADME, organism-based; conditions: in vivo
# [7] = molecular target: Metabotropic glutamate receptor 8 (Homo sapiens, UniProt O00222); assay: Negative allosteric modulation at mGluR8 receptor (unknown origin) assessed as effect on intracellular calcium flux measured after 5 min by Fluo-4AM dye based FLIPR analysis; type: functional, cell-based
# [8] = Fraction unbound in monkey plasma; type: ADME, cell-free, Macaca mulatta; conditions: rhesus monkey
# [9] = molecular target: Voltage-gated inwardly rectifying potassium channel KCNH2 (Homo sapiens, UniProt Q12809); assay: Displacement of [35S]-MK-499 from hERG expressed in HEK293 cells […]; type: toxicity, cell-based
# [10] = Clearance in rat at 1 mg/kg, iv; type: ADME, organism-based; conditions: in vivo
# [11] = Volume of distribution in dog at 0.25 mg/kg, iv; type: ADME, organism-based, Canis lupus familiaris; conditions: in vivo
# [12] = Clearance in monkey at 0.5 mg/kg, iv; type: ADME, organism-based, Macaca mulatta; conditions: rhesus monkey, in vivo
# [13] = Apparent permeability in […] LLC-MDR1 cell; type: ADME, cell-based; conditions: LLC-PK1
# [14] = molecular target: T1, Cytochrome P450 2C8 (Homo sapiens, UniProt P10632); assay: […] of CYP2C8 (unknown origin); type: ADME
# T1 sequence (P10632 whole entry): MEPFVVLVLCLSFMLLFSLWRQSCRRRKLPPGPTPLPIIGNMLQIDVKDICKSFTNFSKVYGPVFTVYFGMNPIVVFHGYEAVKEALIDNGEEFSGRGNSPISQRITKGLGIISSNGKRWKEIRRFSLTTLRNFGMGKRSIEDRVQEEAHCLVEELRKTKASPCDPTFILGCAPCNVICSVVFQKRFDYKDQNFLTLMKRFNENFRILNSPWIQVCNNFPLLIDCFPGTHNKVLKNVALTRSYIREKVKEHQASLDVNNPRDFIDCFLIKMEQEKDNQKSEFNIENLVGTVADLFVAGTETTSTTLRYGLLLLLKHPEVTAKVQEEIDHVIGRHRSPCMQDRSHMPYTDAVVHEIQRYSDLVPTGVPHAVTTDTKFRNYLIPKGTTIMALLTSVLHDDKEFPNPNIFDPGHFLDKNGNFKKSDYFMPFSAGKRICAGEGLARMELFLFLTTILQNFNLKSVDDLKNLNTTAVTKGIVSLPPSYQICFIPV
# [15] = molecular target: Metabotropic glutamate receptor 4 (Homo sapiens, UniProt Q14833); assay: Negative allosteric modulation at mGluR4 receptor (unknown origin) assessed as effect on intracellular calcium flux measured after 5 min by Fluo-4AM dye based FLIPR analysis; type: functional, cell-based
# Chain of Metabotropic glutamate receptor 4 (Q14833 whole entry): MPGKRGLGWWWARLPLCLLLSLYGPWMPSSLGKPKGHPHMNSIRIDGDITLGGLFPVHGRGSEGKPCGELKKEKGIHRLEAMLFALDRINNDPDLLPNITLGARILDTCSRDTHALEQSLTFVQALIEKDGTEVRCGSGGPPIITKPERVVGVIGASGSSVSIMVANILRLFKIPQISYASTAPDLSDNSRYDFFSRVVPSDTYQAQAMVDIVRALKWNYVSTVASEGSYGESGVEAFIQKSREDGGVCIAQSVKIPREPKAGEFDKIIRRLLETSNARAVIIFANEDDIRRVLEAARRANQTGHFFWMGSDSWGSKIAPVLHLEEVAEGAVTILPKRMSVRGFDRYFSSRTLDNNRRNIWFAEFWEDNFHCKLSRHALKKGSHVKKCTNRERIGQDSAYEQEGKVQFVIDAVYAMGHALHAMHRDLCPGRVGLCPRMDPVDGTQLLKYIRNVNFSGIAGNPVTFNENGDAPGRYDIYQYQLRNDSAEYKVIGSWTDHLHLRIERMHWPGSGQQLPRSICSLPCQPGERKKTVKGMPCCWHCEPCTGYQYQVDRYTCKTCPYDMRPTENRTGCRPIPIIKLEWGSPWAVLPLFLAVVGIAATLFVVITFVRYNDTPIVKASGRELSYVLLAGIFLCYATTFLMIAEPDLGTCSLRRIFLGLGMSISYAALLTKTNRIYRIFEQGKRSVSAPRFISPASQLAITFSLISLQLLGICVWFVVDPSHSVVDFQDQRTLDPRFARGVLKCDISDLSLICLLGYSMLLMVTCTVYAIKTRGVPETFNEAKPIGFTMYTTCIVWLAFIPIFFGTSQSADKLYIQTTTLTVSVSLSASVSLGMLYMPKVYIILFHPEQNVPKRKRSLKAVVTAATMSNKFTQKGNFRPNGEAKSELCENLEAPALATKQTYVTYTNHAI
# [16] = Fraction unbound in rat plasma; type: ADME, cell-free
# [17] = Solubility of the compound in FeSSIF; type: physicochemical
# [18] = molecular target: Metabotropic glutamate receptor 1 (Homo sapiens, UniProt Q13255); assay: Negative allosteric modulation at mGluR1 receptor (unknown origin) assessed as effect on intracellular calcium flux measured after 5 min by Fluo-4AM dye based FLIPR analysis; type: functional, cell-based
# Chain of Metabotropic glutamate receptor 1 (Q13255 whole entry): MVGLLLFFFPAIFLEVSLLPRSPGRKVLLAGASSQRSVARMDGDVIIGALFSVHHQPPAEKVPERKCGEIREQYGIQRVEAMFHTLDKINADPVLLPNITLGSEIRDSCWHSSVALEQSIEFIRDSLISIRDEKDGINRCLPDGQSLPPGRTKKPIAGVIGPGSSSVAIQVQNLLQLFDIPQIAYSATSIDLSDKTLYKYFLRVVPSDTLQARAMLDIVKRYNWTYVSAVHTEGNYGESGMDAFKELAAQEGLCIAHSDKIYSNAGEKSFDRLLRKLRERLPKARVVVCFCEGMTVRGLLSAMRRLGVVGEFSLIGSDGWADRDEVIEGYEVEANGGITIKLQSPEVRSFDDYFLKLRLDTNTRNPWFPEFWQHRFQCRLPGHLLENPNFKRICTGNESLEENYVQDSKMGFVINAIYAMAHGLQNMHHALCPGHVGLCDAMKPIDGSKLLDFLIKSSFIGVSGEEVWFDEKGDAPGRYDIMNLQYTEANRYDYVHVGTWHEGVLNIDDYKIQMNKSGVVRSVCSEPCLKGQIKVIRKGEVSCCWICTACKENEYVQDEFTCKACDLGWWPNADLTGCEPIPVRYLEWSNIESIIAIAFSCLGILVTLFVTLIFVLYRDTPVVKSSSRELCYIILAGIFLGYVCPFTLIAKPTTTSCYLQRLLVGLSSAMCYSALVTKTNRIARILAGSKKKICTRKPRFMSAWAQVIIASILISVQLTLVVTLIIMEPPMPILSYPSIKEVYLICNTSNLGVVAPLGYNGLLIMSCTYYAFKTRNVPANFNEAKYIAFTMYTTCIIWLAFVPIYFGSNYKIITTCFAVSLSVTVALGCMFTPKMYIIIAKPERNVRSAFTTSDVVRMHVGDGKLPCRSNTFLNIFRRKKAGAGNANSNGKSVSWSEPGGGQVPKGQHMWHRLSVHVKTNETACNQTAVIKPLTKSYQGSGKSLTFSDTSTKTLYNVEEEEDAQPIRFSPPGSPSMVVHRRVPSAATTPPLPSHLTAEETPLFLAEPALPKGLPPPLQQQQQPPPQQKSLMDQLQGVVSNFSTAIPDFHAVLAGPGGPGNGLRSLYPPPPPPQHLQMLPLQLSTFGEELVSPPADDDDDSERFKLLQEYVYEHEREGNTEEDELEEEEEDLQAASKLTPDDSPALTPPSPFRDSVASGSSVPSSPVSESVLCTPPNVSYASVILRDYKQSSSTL
# [19] = Effective half life in monkey at 0.5 mg/kg, iv; type: ADME, organism-based, Macaca mulatta; conditions: rhesus monkey, in vivo, read-out: t1/2eff (converted)
# [20] = Solubility of the compound in FaSSIF; type: physicochemical
# [21] = Oral bioavailability in dog at 0.5 mg/kg; type: ADME, organism-based, Canis lupus familiaris; conditions: in vivo
# [22] = molecular target: Cytochrome P450 2D6 (Homo sapiens, UniProt P10635); assay: […] of CYP2D6 (unknown origin); type: ADME
# Chain of Cytochrome P450 2D6 (P10635 whole entry): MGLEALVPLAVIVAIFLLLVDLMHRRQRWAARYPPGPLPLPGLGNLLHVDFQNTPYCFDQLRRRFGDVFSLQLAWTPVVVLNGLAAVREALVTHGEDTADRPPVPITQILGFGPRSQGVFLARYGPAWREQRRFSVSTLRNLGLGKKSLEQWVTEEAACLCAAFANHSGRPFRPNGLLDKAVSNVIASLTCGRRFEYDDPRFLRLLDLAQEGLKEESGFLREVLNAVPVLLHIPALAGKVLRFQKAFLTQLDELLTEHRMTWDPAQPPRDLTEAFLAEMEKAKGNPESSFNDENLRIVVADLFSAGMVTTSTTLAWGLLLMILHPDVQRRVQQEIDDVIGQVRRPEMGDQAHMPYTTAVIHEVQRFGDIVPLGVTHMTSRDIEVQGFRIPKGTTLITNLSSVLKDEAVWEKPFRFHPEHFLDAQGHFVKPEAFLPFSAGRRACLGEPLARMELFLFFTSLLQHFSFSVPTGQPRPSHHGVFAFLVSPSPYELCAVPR
# [23] = Effective half life in rat at 1 mg/kg, iv; type: ADME, organism-based; conditions: in vivo, read-out: t1/2eff (converted)
# [24] = Fraction unbound in human plasma; type: ADME, cell-free
# [25] = Unbound plasma concentration in rhesus monkey at 0.01 to 1 mg/kg, IM; type: ADME, organism-based, Macaca mulatta; conditions: in vivo, dose 0.01-1 mg/kg
# [26] = Effective half life in dog at 0.25 mg/kg, iv; type: ADME, organism-based, Canis lupus familiaris; conditions: in vivo, read-out: t1/2eff (converted)
# [27] = Clearance in dog at 0.25 mg/kg, iv; type: ADME, organism-based, Canis lupus familiaris; conditions: in vivo
# [28] = Solubility of the compound in SGF buffer; type: physicochemical
# [29] = molecular target: Cytochrome P450 2C9 (Homo sapiens, UniProt P11712); assay: […] of CYP2C9 (unknown origin); type: ADME
# Chain of Cytochrome P450 2C9 (P11712 whole entry): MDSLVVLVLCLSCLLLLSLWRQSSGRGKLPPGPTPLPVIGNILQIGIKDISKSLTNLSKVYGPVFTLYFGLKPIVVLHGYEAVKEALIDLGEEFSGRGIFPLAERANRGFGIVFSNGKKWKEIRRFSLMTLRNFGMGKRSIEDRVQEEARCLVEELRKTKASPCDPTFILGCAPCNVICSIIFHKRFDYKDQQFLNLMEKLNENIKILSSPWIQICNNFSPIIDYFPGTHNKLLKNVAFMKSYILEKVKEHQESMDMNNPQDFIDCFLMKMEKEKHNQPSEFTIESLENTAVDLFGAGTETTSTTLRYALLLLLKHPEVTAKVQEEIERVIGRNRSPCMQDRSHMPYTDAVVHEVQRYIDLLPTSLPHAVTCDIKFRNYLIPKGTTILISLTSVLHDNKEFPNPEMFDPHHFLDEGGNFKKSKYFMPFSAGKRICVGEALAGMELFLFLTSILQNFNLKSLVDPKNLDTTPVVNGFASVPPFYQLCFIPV
# [30] = molecular target: T2, Cytochrome P450 2B6 (Homo sapiens, UniProt P20813); assay: […] of CYP2B6 (unknown origin); type: ADME
# T2 sequence (P20813 whole entry): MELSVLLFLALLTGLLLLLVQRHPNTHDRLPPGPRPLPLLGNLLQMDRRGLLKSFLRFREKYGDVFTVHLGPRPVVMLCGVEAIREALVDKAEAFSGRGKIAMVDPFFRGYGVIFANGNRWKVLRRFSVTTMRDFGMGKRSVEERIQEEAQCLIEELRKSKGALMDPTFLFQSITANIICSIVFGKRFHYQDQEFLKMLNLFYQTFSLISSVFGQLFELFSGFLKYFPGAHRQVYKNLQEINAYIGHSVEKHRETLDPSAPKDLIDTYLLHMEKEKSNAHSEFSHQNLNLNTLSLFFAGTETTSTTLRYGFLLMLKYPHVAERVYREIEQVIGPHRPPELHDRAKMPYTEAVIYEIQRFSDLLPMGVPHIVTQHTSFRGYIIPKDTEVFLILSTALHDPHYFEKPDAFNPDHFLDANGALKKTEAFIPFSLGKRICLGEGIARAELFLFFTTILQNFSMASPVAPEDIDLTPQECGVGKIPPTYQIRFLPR
# [31] = molecular target: T3, Cytochrome P450 1A2 (Homo sapiens, UniProt P05177); assay: […] of CYP1A2 (unknown origin); type: ADME
# T3 sequence (P05177 whole entry): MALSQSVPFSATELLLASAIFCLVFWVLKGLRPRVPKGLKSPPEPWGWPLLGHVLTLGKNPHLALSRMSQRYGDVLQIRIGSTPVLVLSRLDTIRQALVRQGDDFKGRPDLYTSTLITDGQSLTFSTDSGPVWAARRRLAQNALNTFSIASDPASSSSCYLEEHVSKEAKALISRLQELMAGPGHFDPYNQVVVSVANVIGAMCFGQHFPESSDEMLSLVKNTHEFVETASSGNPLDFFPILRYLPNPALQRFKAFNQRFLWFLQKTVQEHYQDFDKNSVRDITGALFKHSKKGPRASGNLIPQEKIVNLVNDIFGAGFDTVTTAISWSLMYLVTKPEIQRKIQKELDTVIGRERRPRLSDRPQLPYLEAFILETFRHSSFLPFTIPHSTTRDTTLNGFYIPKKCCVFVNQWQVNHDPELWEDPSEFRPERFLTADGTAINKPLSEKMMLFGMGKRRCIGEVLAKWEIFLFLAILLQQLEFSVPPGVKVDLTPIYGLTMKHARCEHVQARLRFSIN
# [32] = molecular target: Cytochrome P450 3A4 (Homo sapiens, UniProt P08684); assay: […] of CYP3A4 (unknown origin); type: ADME
# Chain of Cytochrome P450 3A4 (P08684 whole entry): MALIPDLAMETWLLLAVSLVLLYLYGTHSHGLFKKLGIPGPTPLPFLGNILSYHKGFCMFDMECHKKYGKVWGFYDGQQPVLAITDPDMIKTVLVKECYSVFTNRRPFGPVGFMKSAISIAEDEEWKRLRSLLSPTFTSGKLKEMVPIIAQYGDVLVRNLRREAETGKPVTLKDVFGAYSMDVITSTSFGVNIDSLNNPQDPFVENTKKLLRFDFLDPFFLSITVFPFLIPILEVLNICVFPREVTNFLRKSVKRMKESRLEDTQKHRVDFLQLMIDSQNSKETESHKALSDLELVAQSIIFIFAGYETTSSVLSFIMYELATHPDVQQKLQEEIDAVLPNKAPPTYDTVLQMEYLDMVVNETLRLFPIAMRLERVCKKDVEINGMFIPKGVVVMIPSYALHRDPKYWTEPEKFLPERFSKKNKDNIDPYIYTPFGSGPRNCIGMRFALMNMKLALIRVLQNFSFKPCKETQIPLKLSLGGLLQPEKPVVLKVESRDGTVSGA
# [33] = molecular target: Metabotropic glutamate receptor 6 (Homo sapiens, UniProt O15303); assay: Negative allosteric modulation at mGluR6 receptor (unknown origin) assessed as effect on intracellular calcium flux measured after 5 min by Fluo-4AM dye based FLIPR analysis; type: functional, cell-based
# Chain of Metabotropic glutamate receptor 6 (O15303 whole entry): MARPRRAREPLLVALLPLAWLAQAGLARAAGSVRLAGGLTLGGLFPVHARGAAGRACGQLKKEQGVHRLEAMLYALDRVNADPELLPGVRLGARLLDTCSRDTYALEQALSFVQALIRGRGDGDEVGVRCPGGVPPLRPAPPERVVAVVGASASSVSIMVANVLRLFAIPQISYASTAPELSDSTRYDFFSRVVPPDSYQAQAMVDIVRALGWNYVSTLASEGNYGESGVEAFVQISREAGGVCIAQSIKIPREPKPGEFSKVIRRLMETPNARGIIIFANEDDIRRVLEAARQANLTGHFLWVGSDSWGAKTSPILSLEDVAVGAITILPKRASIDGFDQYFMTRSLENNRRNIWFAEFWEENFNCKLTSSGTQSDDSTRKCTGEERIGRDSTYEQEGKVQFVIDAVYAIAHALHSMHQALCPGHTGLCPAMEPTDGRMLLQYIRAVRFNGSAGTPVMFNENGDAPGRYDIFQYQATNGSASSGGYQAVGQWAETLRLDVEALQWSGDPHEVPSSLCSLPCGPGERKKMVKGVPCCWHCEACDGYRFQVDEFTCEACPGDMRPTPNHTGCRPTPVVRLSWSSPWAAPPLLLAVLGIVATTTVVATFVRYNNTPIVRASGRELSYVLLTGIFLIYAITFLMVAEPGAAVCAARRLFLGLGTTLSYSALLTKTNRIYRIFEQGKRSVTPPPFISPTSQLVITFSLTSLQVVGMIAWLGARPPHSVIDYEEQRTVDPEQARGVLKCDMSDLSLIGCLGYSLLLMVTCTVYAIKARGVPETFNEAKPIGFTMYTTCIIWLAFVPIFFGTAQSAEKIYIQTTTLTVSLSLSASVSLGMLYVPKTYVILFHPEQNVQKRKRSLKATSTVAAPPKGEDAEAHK
structure (smiles),measurement,setting,value
C[C@@H]1CN(Cc2ccc3c(-c4cnn(C)c4)cc(C(N)=O)nc3c2)C[C@H](C(F)(F)F)O1,Vd,[1],3.2 L/kg
same,fraction unbound,[2],0.045
same,Activity,[3],Non-Toxic
same,bioavailability,[4],32%
same,IC50,[5],> 26 µM
same,Vd,[6],5.7 L/kg
same,IC50,[7],> 10 µM
same,fraction unbound,[8],0.043
same,IC50,[9],22 µM
same,clearance,[10],36 mL/min/kg
same,Vd,[11],7.3 L/kg
same,clearance,[12],22 mL/min/kg
same,Papp,[13],32 ×10⁻⁶ cm/s
same,IC50,[14],> 26 µM
same,IC50,[15],> 10 µM
same,fraction unbound,[16],0.04
same,solubility,[17],2100 µg/mL
same,IC50,[18],> 10 µM
same,half-life,[19],1.7 h
same,solubility,[20],440 µg/mL
same,bioavailability,[21],34%
same,IC50,[22],> 26 µM
same,half-life,[23],1.8 h
same,fraction unbound,[24],0.025
same,Cp(f),[25],3 nM
same,half-life,[26],3.3 h
same,clearance,[27],24 mL/min/kg
same,solubility,[28],4100 µg/mL
same,IC50,[29],> 26 µM
same,IC50,[30],> 26 µM
same,IC50,[31],> 26 µM
same,IC50,[32],> 26 µM
same,IC50,[33],> 10 µM
